Assay results as given in article PMC11979685, “Synthesis of Derivatives of the Antibiotic Albicidin: The N‐Terminal Fragment as Key to Control Potency and Resistance Mediated by the Binding Protein AlbA” (Chemistry (Weinheim an Der Bergstrasse, Germany), 2025).
In brackets after ≈: the same amount, converted by molar mass.

Tests used:
[1] = test system: E. coli DSM 1116; test: Qualitative growth inhibition assay in presence of AlbAS; format: cell-based, Escherichia coli
Procedure: Finally, we investigated if synthetic variations of building block A are able to evade the effects of the resistance protein AlbA. Therefore, we carried out a qualitative growth inhibition assay with derivatives 4–24 in presence of an equimolar amount of purified AlbAS. After incubation of the cultures overnight, the growth of the bacteria was evaluated. The ability of AlbAS to sufficiently sequester an albicidin derivative from the supernatant allowed E. coli cells to accumulate in a visible cell pellet. Second, we performed a quantitative transcription‐activation reporter assay[22] to assess transcriptional regulation by AlbAL. The promoter sequence pAlbA was inserted into a reporter vector that encodes the ilux luminescence cassette.[22] The luminescence signals elicited by ligand binding of synthetic variations to AlbAL was compared and normalized to the signal induced by 2nd Gen albicidin 2 and are hereby referred to as relative transcription activation (TA^%). The combination of both assays prompted us to categorize the experimental outcomes (Figure 4) in four groups:
Figure 4 Characterization of AlbA resistance against derivatives 2, 4–24. GIA: Qualitative growth inhibition assay against E. coli DSM 1116. (−): Derivative unable to inhibit the growth of E. coli in presence of AlbAS. (+): Derivative inhibits growth of E. coli in presence of AlbAS. […] For details see SI Figure 9. Transcription activation (TA) assay: luminescence elicited by 2nd Gen albicidin 2 from the TA assay was normalized to 100 % and the luminescence signal of tested derivatives provided: relative luminescence [%]=luminescence [derivative]/luminescence [2]×100 %. Green bars indicate low relative luminescence (<40 %) and red bars indicate high relative luminescence (>50 %). Error bars show the standard deviations of triplicate measurements. TEXT PRINTED IN THE PICTURE: 2: E. coli inhibition +AlbA: − | 4: E. coli inhibition +AlbA: + | 9: E. coli inhibition +AlbA: + | 11: E. coli inhibition +AlbA: + | 12: E. coli inhibition +AlbA: + | 13: E. coli inhibition +AlbA: ~ | 14: E. coli inhibition +AlbA: − | 16: E. coli inhibition +AlbA: − | 17: E. coli inhibition +AlbA: − | 18: E. coli inhibition +AlbA: − | 19: E. coli inhibition +AlbA: − | 20: E. coli inhibition +AlbA: + | 21: E. coli inhibition +AlbA: − | 22: E. coli inhibition +AlbA: − | 23: E. coli inhibition +AlbA: − | 24: E. coli inhibition +AlbA: − […]
1.3 Resistance assessment against AlbA
E. coli strain DSM 1116 was used for all susceptibility testing. E. coli BL21 Star (DE3) cells (Invitrogen) were used for protein expression. LB medium (Lysogeny broth: 10 g/L peptone, 5 g/L yeast extract, 5 g/L NaCl) was used as broth or in agar plates for all experiments. Incubation steps took place at 37°C and 180 rpm shaking if not stated otherwise. Throughout the study, 2nd Gen albicidin 2 was used as albicidin standard due to its better stability, availability and similar activity compared to natural albicidin in presence of resistance factors.[3,4]
AlbA expression and purification
N-terminally His-tagged AlbA was expressed using a pET28a vector as described previously.[5] In brief, E. coli BL21(DE3) cells were transformed with pET28-AlbA plasmid and grown in LB medium with kanamycin. LB broth supplemented with 50 µg/mL kanamycin was inoculated from over-night cultures and grown at 37°C until an OD600 of 0.6 was reached. After induction with 0.2 mM isopropyl β-D-1-thiogalactopyranoside (IPTG) the proteins were expressed at 18°C for 20 h. The cells were harvested by centrifugation (4,000 x G, 20 min), resuspended in lysis buffer (50 mM Tris, pH 8.0, 500 mM NaCl, 10% glycerol) and processed in a cell disruptor (Constant Systems Ltd) at 25 kPsi before centrifugation at 50,000 x G, at 4°C for 45 min. The lysate was incubated with Pure Cube Ni-NTA agarose (Cube Biotech, Germany) at 4°C for 20 min while shaking. The slurry was transferred to empty gravity-flow […]

[2] = Reverse-phase HPLC retention time as estimate of lipophilicity; format: physicochemical; settings: indicator of lipophilicity
Text: As mentioned before, albicidin 1 is a rather hydrophobic compound and improving its aqueous solubility is desirable. The lipophilicity of drug molecules is commonly characterized by the octanol/water partition coefficient (logP). An alternative approach relies on the correlation between lipophilicity and the retention time (Rt) on a reverse‐phase HPLC column.[31] This approach works well if structurally related compounds are compared as is the case for this SAR study. Rt was thus used to estimate the hydrophilicity of albicidin 1 and its derivatives 2–24 (Table 1).[32]

[3] = target: E. coli DNA gyrase (Escherichia coli, UniProt P0AES4); test: E. coli gyrase DNA cleavage assay; format: biochemical; set-up: key to Gyrase inhibition strong+ / weak −: + strong inhibition; − weak inhibition in comparison to compound 16
Procedure: The target activity of the synthesized derivatives was investigated using a DNA cleavage assay with purified and enzymatically active E. coli DNA gyrase[8] (see SI). In this assay, albicidin‐stabilized complexes of gyrase and plasmid DNA are trapped, and subsequently denatured and deproteinated to reveal DNA linearized by gyrase. […] For the best performing compounds, which were able to fully stabilize the cleavage complex at a concentration of 1 μM, the concentrations at half‐maximum cleavage (CC50) were determined (Figure 3).
1.2 Escherichia coli Gyrase Cleavage Inhibition Assay
E. coli gyrase cleavage assays were executed by setting up a master mix including 0.25 µg relaxed plasmid (pBR322) in 35 mM Tris-HCl (pH 7.5), 24 mM KCl, 4 mM MgCl2, 2 mM dithithreitol (DTT), 1.8 mM spermidine, 1 mM ATP, 6.5% (wt/vol) glycerol and 0.1 mg/ml bovine serum albumin per reaction.
Of this stock solution, 13.2 µL was aliquoted for each reaction into 1.5 mL Eppendorf tubes and supplemented with 0.3 µL of the appropriate compound dilution or DMSO with a […] DMSO concentration of 2% per reaction. The reactions were started with 1.5 µL of 50 nM (pre-screening) or 40 nM (IC50 determinations) wt E. coli gyrase in dilution buffer (50 mM Tris-HCl (pH 7.5), 100 mM KCl, 2 mM DTT, 1 mM EDTA, and 50% (wt/vol) glycerol) for a […] volume of 15 µL. Reactions were incubated at 37°C for 30 minutes before addition of 1.5 µL 0.2% (wt/vol) SDS and 0.75 µL proteinase K (0.2 mg/mL) and further incubation at 37°C for 30 minutes to trap cleavage complexes. Reactions were stopped with 15 µL chloroform:isoamyl alcohol (24: 1 v/v) and 15 µL of STEB (40% (wt/vol) sucrose, […] Tris-Cl pH 8, 10 mM EDTA, 0.5 mg/mL bromophenol blue). After brief vortexing and centrifugation at 2,300g for 5 min, 15 µL of the aqueous phase was loaded onto 1% (wt/vol) agarose in TAE (Tris-acetate […] and EDTA […]) gels supplemented with 10 µg/mL ethidium bromide.
The gels were run at 85 V for 2 hours.
DNA was visualized (602/50, UV Trans, auto optimal exposure) with a ChemiDoc MP (Bio-Rad Laboratories Inc., equipped with ImageLab Touch Software v2.0.0.27) and the percentage of cleaved DNA relative to the total amount of DNA per lane was determined with ImageJ software.[2] IC50 curves were generated in GraphPad Prism (v10.0.0) using the non-linear regression curve fit variable slope with four parameters and least squares regression.

[4] = test system: Salmonella typhimurium TA100; test: MIC determination (broth microdilution); format: cell-based; settings: Salmonella enterica, read-out: MIC S. typh.
Procedure: (§1) After completing the syntheses, the antibacterial activity of A‐variations 4–24 was assessed by determination of MIC values against a basic set of gram‐negative and gram‐positive bacteria (Table 1). The monocyclic derivatives 4–8 featuring a cyano‐, trifluoromethyl‐, methoxy‐ and fluoro‐ substituent in para‐position were very active against the gram–negative E. coli and S. typhimurium strains with MIC values in the same range as 3rd Gen albicidin 3 or ciprofloxacin which is the gold standard for gyrase inhibitors. […] These findings are in agreement with previous studies showing good activities for cyano, trifluoromethyl, methoxy and fluoro substituents in the para‐position of different aromatic rings in the building block A.[12, 13] The activity of the monocyclic derivatives 4–8 against the gram‐positive strains B. subtilis and M. luteus were similar but slightly less pronounced compared to the lead structure 3.
(§2) 1.1 Determination of Minimal Inhibitory Concentrations (MIC)
(§3) Minimal inhibitory concentration (MIC) against selected bacterial strains values were determined according to the ninth edition of the Approved Standard M07-A9.[1] 20 μL of cryo stocks of bacterial strains were suspended in 20 mL LB medium (Lysogeny broth: 10 g/L peptone, 5 g/L yeast extract, 5 g/L NaCl). Following incubation overnight at 37°C, 200 rpm, the test inoculum was adjusted by 0.5 McFarland Standard in cation adjusted Mueller-Hinton broth (BBLTM Mueller-Hinton Broth II, Becton, Dickinson and Company, New Jersey, USA) to approximately 1x10^6 CFU mL-1. 95 μL of the bacterial inoculum were applied per well of a 96-well plate. Albicidin and albicidin derivatives 3−24 were dissolved in DMSO (100%) to an initial concentration of 2560 μg/mL and serially diluted in DMSO (100%). Initial solution and serial dilutions of Ciprofloxacin were prepared in 0.1 N HCL, respectively. 5 μL of each antibiotic dilution were added to the microdilution tray to reach albicidin concentrations of 128 μg/mL to 0.016 μg/mL per well. One row of each well plate served as a growth control without antibiotic substances and another row of the microdilution tray served as sterility control (only MHB II - media). The antimicrobial effect of the solvent (DMSO) was tested by adding 5 μL DMSO to several wells. Purity check and cell titer control were performed according to International S tandard M07-A9 on Mueller-Hinton II Agar (Mueller Hinton II Broth, 15 g/L agar-agar). Both microdilution trays and agar plates were incubated at 30−37°C for 16 h and subsequently analyzed for growth inhibition by naked eye. The following primary panel of microorganisms were purchased from German Collection of Microorganisms and Cell Cultures (DSMZ):
(§4) Escherichia coli DSM 1116
(§5) Micrococcus luteus DSM 1790
(§6) Mycobacterium phlei DSM 750
(§7) Salmonella typhimurium TA100 was kindly provided by Prof. Dr. Vera Meyer (Technische Universität Berlin). […]
(§8) was purchased as part of the single gene knockout library of E. coli K12 BW25113 (Keio collection) from Horizon Discovery group plc (Cambridge, UK).

[5] = test system: E. coli DSM1116; test: MIC determination (broth microdilution); format: cell-based; settings: Escherichia coli, DSM1116; read-out: MIC E. coli DSM1116
Procedure: as §1, §2, §3, §4, §5, §6, §7, §8

[6] = test system: Bacillus subtilis DSM 10; test: MIC determination (broth microdilution); format: cell-based; settings: DSM10, read-out: MIC B. sub.
Procedure: as §1, §2, §3, §4, §5, §6, §7, §8

[7] = test system: Mycobacterium phlei DSM 750; test: MIC determination (broth microdilution); format: cell-based; settings: Mycolicibacterium phlei, DSM750; read-out: MIC M. phlei
Procedure: as §1, §2, §3, §4, §5, §6, §7, §8

[8] = test system: Micrococcus luteus DSM 1790; test: MIC determination (broth microdilution); format: cell-based; settings: DSM1790, read-out: MIC M. luteus
Procedure: as §1, §2, §3, §4, §5, §6, §7, §8

[9] = test system: E. coli BW25113; test: MIC determination (broth microdilution); format: cell-based; settings: Escherichia coli, BW25113; read-out: MIC E. coli BW25113
Procedure: as §1, §2, §3, §4, §5, §6, §7, §8

[10] = test system: E. coli; test: MIC against E. coli in presence of 50 % human serum; format: cell-based; settings: Escherichia coli; E. coli in presence of 50 % human serum; read-out: MICEc 50%HS

Chain of E. coli DNA gyrase (P0AES4 whole entry): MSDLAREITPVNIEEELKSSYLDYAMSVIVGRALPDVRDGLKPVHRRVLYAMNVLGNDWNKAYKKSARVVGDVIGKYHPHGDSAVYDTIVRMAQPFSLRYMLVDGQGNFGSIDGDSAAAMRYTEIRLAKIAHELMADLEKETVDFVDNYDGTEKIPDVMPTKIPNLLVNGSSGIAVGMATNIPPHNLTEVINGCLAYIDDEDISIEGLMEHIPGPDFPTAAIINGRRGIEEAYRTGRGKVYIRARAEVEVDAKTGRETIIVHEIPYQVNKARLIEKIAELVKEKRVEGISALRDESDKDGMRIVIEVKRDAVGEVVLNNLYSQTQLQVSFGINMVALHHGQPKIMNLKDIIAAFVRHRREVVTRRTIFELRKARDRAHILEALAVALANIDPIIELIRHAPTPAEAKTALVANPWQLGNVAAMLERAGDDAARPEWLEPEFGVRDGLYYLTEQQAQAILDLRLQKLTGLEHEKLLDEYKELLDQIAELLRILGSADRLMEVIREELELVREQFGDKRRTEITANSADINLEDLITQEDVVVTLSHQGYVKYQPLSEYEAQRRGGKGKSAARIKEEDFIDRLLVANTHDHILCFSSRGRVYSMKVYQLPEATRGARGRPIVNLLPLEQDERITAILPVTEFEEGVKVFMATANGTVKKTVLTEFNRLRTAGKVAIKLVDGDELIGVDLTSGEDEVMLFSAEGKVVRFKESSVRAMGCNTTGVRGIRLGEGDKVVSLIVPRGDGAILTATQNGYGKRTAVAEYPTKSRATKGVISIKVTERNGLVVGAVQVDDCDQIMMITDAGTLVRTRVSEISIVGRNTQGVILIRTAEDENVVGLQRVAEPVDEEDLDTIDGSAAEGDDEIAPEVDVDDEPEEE

SMILES	GIA: E. coli inhibition +AlbA ([1]; E. coli DSM 1116, 10 µM compound with equimolar AlbAS)	bioactivity in presence of AlbAS (in words) ([1]; E. coli, equimolar purified AlbAS)	Rt (retention time) [2] [min]	CC50 ([3]; E. coli gyrase DNA cleavage, read-out: CC50 (concentration at half-maximum cleavage)) [nM]	Gyrase inhibition strong+ / weak − ([3]; qualitative DNA cleavage assay at 1 μM and 10 μM, in comparison to compound 16)	MIC [4] [µg/mL]	MIC [5] [µg/mL]	MIC [6] [µg/mL]	MIC [7] [µg/mL]	MIC [8] [µg/mL]	MIC [9] [µg/mL]	MIC [10] [µg/mL]
COc1c(NC(=O)c2ccc(NC(=O)c3ccc(NC(=O)[C@H](Cc4cn[nH]n4)NC(=O)c4ccc(NC(=O)/C(C)=C/c5ccc(O)cc5)cc4)cc3)c(OC)c2O)ccc(C(=O)O)c1O [compound 2, reference compound]	−	deactivated										
COc1c(NC(=O)c2ccc(NC(=O)c3ccc(NC(=O)[C@H](Cc4cn[nH]n4)NC(=O)c4ccc(NC(=O)/C(C)=C/c5ccc(O)cc5)cc4)cn3)c(OC)c2O)ccc(C(=O)O)c1O [compound 3, reference compound]			8.15	66	+	0.016 (≈ 0.0181 µM)	0.016 (≈ 0.0181 µM)	0.031 (≈ 0.035 µM)	0.25 (≈ 0.282 µM)	0.031 (≈ 0.035 µM)	0.016 (≈ 0.0181 µM)	0.5
